Tests used:
human ALK2 R206H = biological target: T1, human ALK2 R206H (Homo sapiens, UniProt Q04771, R206H); assay: Cell-based ALK2-R206H cell activity assay (Smad1-Ser463/Ser465 phosphorylation by AlphaLISA in HEK293-ALK2-R206H cells); settings: phospho-Smad1 AlphaLISA, read-out: Cell Line (Cell Assay, IC50 class)
T1 construct: expressed in transfected cells; host or cells: HEK293 (ATCC CRL1573), lentivirus transduction, blasticidin selection
T1 sequence (Q04771 21-509 R206H): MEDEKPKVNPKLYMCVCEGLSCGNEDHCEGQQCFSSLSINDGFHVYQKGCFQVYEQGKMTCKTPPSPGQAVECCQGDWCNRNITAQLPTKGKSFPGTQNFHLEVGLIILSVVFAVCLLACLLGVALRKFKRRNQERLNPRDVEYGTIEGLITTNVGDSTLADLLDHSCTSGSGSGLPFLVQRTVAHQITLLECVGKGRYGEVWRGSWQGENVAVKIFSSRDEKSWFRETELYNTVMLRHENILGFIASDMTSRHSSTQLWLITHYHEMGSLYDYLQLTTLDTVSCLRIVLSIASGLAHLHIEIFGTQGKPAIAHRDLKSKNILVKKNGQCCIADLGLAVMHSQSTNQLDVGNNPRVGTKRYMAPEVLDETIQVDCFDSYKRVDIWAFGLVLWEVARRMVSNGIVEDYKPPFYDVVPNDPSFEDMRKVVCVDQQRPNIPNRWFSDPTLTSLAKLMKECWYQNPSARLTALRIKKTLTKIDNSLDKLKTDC
Method in brief: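 HEK293 stable line expressing human ALK2 R206H with C-terminal FLAG, plated overnight in serum-free medium. Cells were treated 2-3 h with compound over 10 3-fold doses, top 10 μM or 1 μM, in duplicate. Phospho-Smad1 Ser463/465 in lysate was read by AlphaLISA; IC50 was normalised to DMSO (0%) and 1 μM LDN193189 (100%).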

[1] = biological target: T2, ALK2R206H (mutant ALK2, N-terminally tagged with GST) (Homo sapiens, UniProt Q04771, R206H); assay: ALK binding assay (LANTHASCREEN TR-FRET competitive binding, displacement of Kinase Tracer 178); settings: read-out: Binding Assay (IC50 class)
T2 construct: purchased Carna Bioscience or ThermoFisher 09-148 or PV6232
T2 sequence (Q04771 21-509 R206H): T1 sequence (Q04771 21-509 R206H)
Method in brief: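 GST-tagged ALK2 R206H (2-5 nM) mixed with Eu-anti-GST antibody (4-10 nM), Kinase Tracer 178 (50 nM, near its Kd) and compound titration (1% DMSO) in Kinase Buffer A, 30 min at room temperature. Tracer displacement read as TR-FRET ratio, normalized to controls; IC50 from 4-parameter fit.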

Compound | IC50 (human ALK2 R206H) [nM] | IC50 [1] [nM]
Cn1cc(-c2[nH]c3nccc(N4CCN(C(=O)C5CC5)CC4)c3c2C#N)cn1 [Compound 55] | 100 to 500 | ≤ 10
O=C(OC1CC1)N1CCN(c2ccnc3[nH]c(-c4nc5c(s4)COCC5)cc23)CC1 [Compound 311] | ≤ 100 | ≤ 10
N#Cc1c(-c2nc3c(s2)COCC3)[nH]c2nccc(N3CCN(C(=O)OC4CC4)CC3)c12 [Compound 395] | ≤ 100 | ≤ 10
Cn1cc(-c2cc3c(N4CCN(C(=O)C5CCCCC5)CC4)ccnc3[nH]2)cn1 [Compound 134] | 100 to 500 | ≤ 10
Cc1csc(-c2cc3c(N4CCN(C(=O)C5CC5)CC4)ccnc3[nH]2)n1 [Compound 35] | 100 to 500 | ≤ 10
Cn1cc(-c2cc3c(N4CCN(C(=O)O[C@H]5C[C@@H](O)C5)CC4)ccnc3[nH]2)cn1 [Compound 149] | 100 to 500 | ≤ 10
CCOC(=O)N1CCN(c2ccnc3[nH]c(-c4ccc(C5(OC)CCOCC5)cc4C#N)cc23)CC1 [Compound 455] | ≤ 100 | ≤ 10
Cn1cc(-c2[nH]c3nccc(N4CCN(C(=O)O[C@H]5CCOC5)CC4)c3c2Cl)cn1 [Compound 330] | ≤ 100 | ≤ 10
Cc1nc(-c2cc3c(N4CCN(C(=O)O[C@@H](C)CF)CC4)ccnc3[nH]2)cs1 [Compound 189] | ≤ 100 | ≤ 10
C[C@@H](CF)OC(=O)N1CCN(c2ccnc3[nH]c(-c4cnn(C)c4)cc23)CC1 [Compound 117] | ≤ 100 | ≤ 10

Source: US11236086B2, “Substituted pyrrolopyridines as inhibitors of activin receptor-like kinase” (BLUEPRINT MEDICINES CORPORATION, priority 2017, dated 2022)
